Assays:
[1] = tested on: Southern Armyworm (Spodoptera eridania); assay: Southern armyworm lima bean foliar spray test (B.5); assay type: in vivo; conditions: 96 h, larvae on sprayed lima bean plants, 4 days after treatment, read-out: mortality in comparison with untreated controls
Method: B.5 Southern Armyworm (Spodoptera eridania)
The active compounds were formulated by a Tecan liquid handler in 100% cyclohexanone as a 10,000 ppm solution supplied in tubes. The 10,000 ppm solution was serially diluted in 100% cyclohexanone to make interim solutions. These served as stock solutions for which final dilutions were made by the Tecan in 50% acetone:50% water (v/v) into 5 or 10 ml glass vials. A nonionic surfactant (Kinetic®) was included in the solution at a volume of 0.01% (v/v). The vials were then inserted into an automated electrostatic sprayer equipped with an atomizing nozzle for application to plants/insects.
Lima bean plants (variety Sieva) were grown 2 plants to a pot and selected for treatment at the 1st true leaf stage. Test solutions were sprayed onto the foliage by an automated electrostatic plant sprayer equipped with an atomizing spray nozzle. The plants were dried in the sprayer fume hood and then removed from the sprayer. Each pot was placed into perforated plastic bags with a zip closure. About 10 to 11 armyworm larvae were placed into the bag and the bags zipped closed. […] Mortality and reduced feeding were assessed 4 days after treatment, compared to untreated control plants.

[2] = tested on: Diamond Back Moth (Plutella xylostella); assay: Diamond back moth leaf-dip test (B.1); assay type: in vivo; conditions: cabbage leaves dipped, 3rd instar larvae, 72 hours after treatment, read-out: mortality in comparison with untreated controls
Method: B.1 Diamond Back Moth (Plutella xylostella)
The active compound was dissolved at the desired concentration in a mixture of 1:1 (vol:vol) distilled water:aceteone. Surfactant (Kinetic HV) was added at a rate of 0.01% (vol/vol). The test solution was prepared at the day of use.
Leaves of cabbage were dipped in test solution and air-dried. Treated leaves were placed in petri dishes lined with moist filter paper and inoculated with ten 3rd instar larvae. Mortality was recorded 72 hours after treatment. Feeding damages were also recorded using a scale of 0-100%.

[3] = tested on: Vetch Aphid (Megoura viciae); assay: Vetch aphid broad bean leaf disk test (B.6); assay type: in vivo; conditions: foliar, 120 h, adult aphids on sprayed broad bean leaf disks, 5 days, read-out: mortality in comparison with untreated controls
Method: B.6 Vetch Aphid (Megoura viciae)
For evaluating control of vetch aphid (Megoura viciae) through contact or systemic means the test unit consisted of 24-well-microtiter plates containing broad bean leaf disks.
The compounds were formulated using a solution containing 75% v/v water and 25% v/v DMSO. Different concentrations of formulated compounds were sprayed onto the leaf disks at 2.5 μl, using a custom built micro atomizer, at two replications. After application, the leaf disks were air-dried and 5-8 adult aphids placed on the leaf disks inside the microtiter plate wells. The aphids were then allowed to suck on the treated leaf disks and incubated at about 23±1° C. and about 50±5% relative humidity for 5 days. Aphid mortality and fecundity was then visually assessed.

[4] = tested on: Tobacco Budworm (Heliothis virescens); assay: Tobacco budworm microtiter diet test (B.7); assay type: in vivo; conditions: 120 h, egg and larval mortality, sprayed insect diet, 5 days, read-out: mortality in comparison with untreated controls
Method: B.7 Tobacco Budworm (Heliothis virescens)
For evaluating control of tobacco budworm (Heliothis virescens) the test unit consisted of 96-well-microtiter plates containing an insect diet and 15-25 H. virescens eggs. The compounds were formulated using a solution containing 75% v/v water and 25% v/v DMSO. Different concentrations of formulated compounds were sprayed onto the insect diet at 10 μl, using a custom built micro atomizer, at two replications.
After application, microtiter plates were incubated at about 28±1° C. and about 80±5% relative humidity for 5 days. Egg and larval mortality was then visually assessed.

[5] = tested on: Boll Weevil (Anthonomus grandis); assay: Boll weevil microtiter diet test (B.8); assay type: in vivo; conditions: 120 h, egg and larval mortality, sprayed insect diet, 5 days, read-out: mortality in comparison with untreated controls
Method: B.8 Boll Weevil (Anthonomus grandis)
For evaluating control of boll weevil (Anthonomus grandis) the test unit consisted of 96-well-microtiter plates containing an insect diet and 5-10 A. grandis eggs.
The compounds were formulated using a solution containing 75% v/v water and 25% v/v DMSO. Different concentrations of formulated compounds were sprayed onto the insect diet at 5 μl, using a custom built micro atomizer, at two replications.
After application, microtiter plates were incubated at about 25±1° C. and about 75±5% relative humidity for 5 days. Egg and larval mortality was then visually assessed.

[6] = tested on: Mediterranean Fruitfly (Ceratitis capitata); assay: Mediterranean fruitfly microtiter diet test (B.3); conditions: 120 h, read-out: mortality in comparison with untreated controls
[7] = tested on: Green Peach Aphid (Myzus persicae); assay: Green peach aphid artificial diet systemic test (B.2); assay type: in vivo; conditions: 72 h, adult aphids on treated artificial diet, 3 days, read-out: mortality in comparison with untreated controls
Description: B.2 Green Peach Aphid (Myzus persicae)
For evaluating control of green peach aphid (Myzus persicae) through systemic means the test unit consisted of 96-well-microtiter plates containing liquid artificial diet under an artificial membrane.
The compounds were formulated using a solution containing 75% v/v water and 25% v/v DMSO. Different concentrations of formulated compounds were pipetted into the aphid diet, using a custom built pipetter, at two replications.
After application, 5-8 adult aphids were placed on the artificial membrane inside the microtiter plate wells. The aphids were then allowed to suck on the treated aphid diet and incubated at about 23±1° C. and about 50±5% relative humidity for 3 days. Aphid mortality and fecundity was then visually assessed.

Cc1cc(C2=NSC(c3cc(Cl)c(Cl)c(Cl)c3)(C(F)(F)F)C2)sc1C(=O)OC(C)(C)C (stereo not shown) [Compound 1-1, tert-Butyl 3-methyl-5-[5-(3,4,5-trichlorophenyl)-5-(trifluoromethyl)-4H-isothiazol-3-yl]thiophene-2-carboxylate]
≥ 75%: mortality at 300 ppm [1]

Cc1cc(C2=NSC(c3cc(Cl)c(Cl)c(Cl)c3)(C(F)(F)F)C2)sc1C(=O)NCC(F)(F)F (stereo not shown) [Compound 1-7, 3-Methyl-5-[5-(3,4,5-trichlorophenyl)-5-(trifluoromethyl)-4H-isothiazol-3-yl]-N-(2,2,2-trifluoroethyl)thiophene-2-carboxamide]
≥ 75%: mortality at 500 ppm [2] | mortality at 2500 ppm [3] | mortality at 2500 ppm [4] | mortality at 2500 ppm [5] | mortality at 2500 ppm [6]

O=C(O)c1sc(C2=NSC(c3cc(Cl)c(F)c(Cl)c3)(C(F)(F)F)C2)cc1C(F)(F)F (stereo not shown) [Compound 1-9, 5-[5-(3,5-Dichloro-4-fluoro-phenyl)-5-(trifluoromethyl)-4H-isothiazol-3-yl]-3-(trifluoromethyl)-thiophene-2-carboxylic acid]
≥ 75%: mortality at 2500 ppm [4] | mortality at 2500 ppm [5]

O=C(NCc1ncccn1)c1sc(C2=NSC(c3cc(Cl)c(F)c(Cl)c3)(C(F)(F)F)C2)cc1C(F)(F)F (stereo not shown) [Compound 1-12, 5-[5-(3,5-Dichloro-4-fluoro-phenyl)-5-(trifluoromethyl)-4H-isothiazol-3-yl]-N-(pyrimidin-2-ylmethyl)-3-(trifluoromethyl)thiophene-2-carboxamide]
≥ 75%: mortality at 2500 ppm [7] | mortality at 2500 ppm [3] | mortality at 2500 ppm [4] | mortality at 2500 ppm [5] | mortality at 2500 ppm [6]

Source: patent US10533002B2, “Thiophene- or furan-substituted isothiazoline compounds as pesticides” (BOEHRINGER INGELHEIM ANIMAL HEATLH USA INC., priority 2013, dated 2020)
